Patent US8293780B1, “Anti-cancer agents based on 6-trifluoromethoxybenzimidazole derivatives and method of making” (U.S. Department of Energy, priority 2009, dated 2012)
Structures can show the parent of a compound that is named as a salt.

system: DU-145 cells (prostate carcinoma); assay: DU-145 cell growth inhibition, tetrazolium dye XTT viability endpoint; assay type: cell-based; conditions: Homo sapiens, triplicate, five half-logarithmic dilutions, read-out: DU145 TC50
Description: Cell Preparation: DU-145 cells (prostate carcinoma; catalog #HTB-81) were obtained from the ATCC and propagated in EMEM with Earles BSS supplemented with 10% FBS (fetal bovine serum), 2 mM L-glutamine, 100 U/mL penicillin, 100 μg/mL streptomycin, 1 mM sodium pyruvate, and 0.1 mM NEAA (Non-Essential Amino Acids). DU-145 cells were passaged in T-75 flasks prior to use in the assay. On the day preceding the assay, the cells were split 1:2 to assure they were in an exponential growth phase at the time of infection. Total cell and viability quantification was performed using a hemocytometer and Trypan Blue dye exclusion. Cell viability was greater than 95% for the cells to be utilized in the assay. The cells were re-suspended at 1×10^5 cells per mL in tissue culture medium and added to the drug-containing microtiter plates in a volume of 100 μL.
Plate Format: Each plate contained cell control wells (cells only), experimental compound evaluation wells (cells plus compound only), and test compound colorimetric control wells (compound only). Samples were initially tested in triplicate for inhibition of DU-145 cell growth at 10 μM concentration for each compound with a single colorimetric control well. Secondary assay tested the compounds in triplicate using five half-logarithmic dilutions.
Tetrazolium Dye XTT Viability Endpoint: Following incubation at 37° C. in a 5% CO2 incubator, the test plates were stained with the tetrazolium dye XTT (2,3-bis(2-methoxy-4-nitro-5-sulfophenyl)-5-[(phenylamino)carbonyl]-2H-tetrazolium hydroxide). XTT was metabolized by the mitochondrial enzymes of metabolically active cells to a soluble formazan product, allowing rapid quantitative analysis of the inhibition of DU-145 […] by anti-prostate cancer test substances. XTT solution was prepared daily as a stock of 1 mg/mL in RPMI1640. Phenazine methosulfate (PMS) solution was prepared at 0.15 mg/mL in PBS (Phosphate—Buffered Saline) and stored in the dark at −20° C. XTT/PMS stock was prepared immediately before use by adding 40 μL of PMS per ml of XTT solution. Fifty microliters of XTT/PMS was added to each well of the plate and the plate was reincubated for 4 hours at 37° C. Plates were sealed with adhesive plate sealers and shaken gently or inverted several times to mix the soluble formazan product and the plate was read spectrophotometrically at 450/650 nm with a Molecular Devices Vmax plate reader.
IC50 represents the concentration of a drug that is required for 50% inhibition in vitro.

| SMILES | CC50 |
| --- | --- |
| Cc1nc2ccc(OC(F)(F)F)cc2[nH]1 | > 10 µM |
| CCc1nc2ccc(OC(F)(F)F)cc2[nH]1 | > 10 µM |
| FC(F)(F)Oc1ccc2nc(-c3ccccc3)[nH]c2c1 | 0.9 µM |
| FC(F)(F)Oc1ccc2nc(-c3ccco3)[nH]c2c1 | 1.8 µM |
| FC(F)(F)Oc1ccc2nc(-c3cccnc3)[nH]c2c1 | 4.6 µM |
| CC/C(=C(\c1ccccc1)c1ccc(OCCN(C)C)cc1)c1ccccc1 [Tamoxifen Citrate, reference compound] | 20 µM |
